Laboratory results reported in ChEMBL document CHEMBL4033727, “Design, synthesis, in silico and in vitro evaluation of thiophene derivatives: A potent tyrosine phosphatase 1B inhibitor and anticancer activity” (Bioorg Med Chem Lett, 2017).

Tests used:
[1] = tested on: MCF7; assay: Anticancer activity against human MCF7 cells incubated for 24 hrs by MTT assay; assay type: functional, cell-based; conditions: MCF7, 24 h
[2] = tested on: HepG2; assay: Anticancer activity against human HepG2 cells incubated for 24 hrs by MTT assay; assay type: functional, cell-based; conditions: HepG2, 24 h
[3] = tested on: HeLa; assay: Anticancer activity against human HeLa cells incubated for 24 hrs by MTT assay; assay type: functional, cell-based
[4] = tested on: MDA-MB-231; assay: Anticancer activity against human MDA-MB-231 cells incubated for 24 hrs by MTT assay; assay type: functional, cell-based; conditions: MDA-MB-231, 24 h
[5] = tested on: K562; assay: Anticancer activity against human K562 cells incubated for 24 hrs by MTT assay; assay type: functional, cell-based; conditions: K562, 24 h
[6] = biological target: T1, Tyrosine-protein phosphatase non-receptor type 1 (Homo sapiens, UniProt P18031); assay: Inhibition of recombinant PTP1B (unknown origin) using pNPP substrate
T1 sequence (P18031 whole entry): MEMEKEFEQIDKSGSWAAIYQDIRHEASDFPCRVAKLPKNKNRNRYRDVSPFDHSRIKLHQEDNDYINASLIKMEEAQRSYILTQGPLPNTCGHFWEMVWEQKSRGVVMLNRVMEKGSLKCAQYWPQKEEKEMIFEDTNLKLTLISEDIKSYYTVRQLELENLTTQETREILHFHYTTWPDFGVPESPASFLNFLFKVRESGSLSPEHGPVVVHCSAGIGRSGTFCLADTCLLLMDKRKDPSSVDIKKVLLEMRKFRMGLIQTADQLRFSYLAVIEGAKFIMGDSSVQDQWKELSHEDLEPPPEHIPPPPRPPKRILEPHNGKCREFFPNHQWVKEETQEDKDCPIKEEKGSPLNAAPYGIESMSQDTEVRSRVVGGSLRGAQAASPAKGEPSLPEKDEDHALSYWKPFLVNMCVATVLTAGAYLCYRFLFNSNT

[7] = tested on: HEK293; assay: Cytotoxicity activity against human HEK293 cells incubated for 24 hrs by MTT assay; assay type: cell-based; conditions: HEK293, 24 h
[8] = Stability in various solvents up to 96 hrs at different temperatures; assay type: physicochemical

IC50 [1] [µM] | IC50 [2] [µM] | IC50 [3] [µM] | IC50 [4] [µM] | IC50 [5] [µM] | IC50 [6] [µM] | Stability [8] | SMILES | IC50 [7] [µM]
1.47 | 23.3 | 23.5 | 7.25 | 12.5 | 7.29 |  | COC(=O)c1scc(-c2ccc(NC(=O)c3ccc(C(F)(F)F)nc3)cc2)c1OC | 
9.54 | 22.5 |  | 28.5 |  | 12.5 |  | COC(=O)c1scc(-c2ccc(NC(=O)c3ccc(C#N)nc3)cc2)c1OC | 
10.3 | 10.3 | 16.2 | 10.3 | 8.25 | 12.3 |  | COC(=O)c1scc(-c2ccc(NC(=O)c3ccc(F)c(Cl)n3)cc2)c1OC | 
12.2 | 16.5 | 12.7 | 8.24 | 14.7 | 14.5 |  | COC(=O)c1scc(-c2ccc(NC(=O)c3cccc(I)c3)cc2)c1OC | 42.7
22.5 |  |  | 16.5 | 35.6 | 20.6 |  | COC(=O)c1scc(-c2ccc(NC(=O)c3cc(I)ccc3F)cc2)c1OC | 45.2
0.09 | 19.5 | 18.2 | 5.25 | 10.2 | 5.25 | Stable | COC(=O)c1scc(-c2ccc(NC(=O)c3ccc4ccccc4c3)cc2)c1OC | 
18.6 | 15.3 | > 50 | > 50 |  | 24.3 |  | COC(=O)c1scc(-c2ccc(NC(=O)c3cccs3)cc2)c1OC | > 50
5.25 | > 50 | 24.4 | 15.3 | 18.2 | 22.3 |  | COC(=O)c1scc(-c2ccc(NC(=O)c3ccc(OC)nc3)cc2)c1OC | > 50
22.4 | 28.2 | 16.2 | 19.6 | 9.25 | 16.5 |  | COC(=O)c1scc(-c2ccc(NC(=O)c3ccc(C(F)(F)F)cc3Br)cc2)c1OC | > 50
26.2 | 32.5 | 19.3 | 24.6 | 6.13 | 12.3 |  | COC(=O)c1scc(-c2ccc(NC(=O)c3cccc(C(F)(F)F)c3)cc2)c1OC | 
24.6 | 24.6 | 14.4 | 18.3 | 9.26 | 14.8 |  | COC(=O)c1scc(-c2ccc(NC(=O)c3ccc(C(F)(F)F)cc3)cc2)c1OC | 48.3
19.2 | 10.3 | > 50 | 8.25 | 24.2 | 11.3 |  | COC(=O)c1scc(-c2ccc(NC(=O)c3ccccn3)cc2)c1OC | 
5.46 | 9.53 | 18.3 | 8.36 | 12.6 | 11.2 |  | COC(=O)c1scc(-c2ccc(NC(=O)c3ncc(Cl)cc3Br)cc2)c1OC | > 50
2.22 | 0.72 | 16.6 | 7.54 | 18.2 | 6.37 |  | COC(=O)c1scc(-c2ccc(NC(=O)c3cccc(OC(F)(F)F)c3)cc2)c1OC | 
12.2 | 13.5 |  | 14.2 | 9.56 | 16.3 |  | COC(=O)c1scc(-c2ccc(NC(=O)Cc3c(Cl)cccc3Cl)cc2)c1OC | 
0.41 |  | 0.37 | 0.6 | 0.07 |  |  | COc1cccc2c1C(=O)c1c(O)c3c(c(O)c1C2=O)C[C@@](O)(C(=O)CO)C[C@@H]3O[C@H]1C[C@H](N)[C@H](O)[C@H](C)O1 [DOXORUBICIN] | 
